In patent EP4023291A1, “FAT METABOLISM PROMOTER” (Asahi Group Holdings, Ltd., priority 2019, dated 2021):

What was measured:
3T3-L1 cells = test: Test 4: lipolysis test, glycerol released into culture supernatant of differentiated adipocytes; type: cell-based, Mouse; settings: for control ratio: amount of glycerol relative to medium of Comparative Example 4, Average: culture 2 days, 0.1% ethanol, 0.1 µM noradrenaline, ethyl caproate 0/0.1/1/10 ppm in Comparative Example 5/Examples 6/7/8; for amount of released glycerol, comparison with control: against Comparative Example 4 (0.1% ethanol), one-way ANOVA, Dunnett's test
Procedure: In the present test, the lipolysis-promoting effect of the promoter of the present embodiment was tested by quantifying glycerol released into culture supernatant through decomposition of fat accumulated in adipocytes. Mouse embryonic 3T3-L1 cells, which are progenitor cells of adipocytes and were used in the present test, were induced to differentiate to form adipocytes. The present test was carried out in accordance with a method described in "Effects of Quercetin Glucosides on Dietinduced Obesity in Mice - The Lipolytic Activity of Quercetin -" (Tateishi et al., Japanese Pharmacology & Therapeutics 2009; 37(2): 123-131). The specific testing method of the present test and the results of the test are shown in the following.
In the present test, first, 3T3-L1 cells were suspended in Dulbecco's Modified Eagle medium (manufactured by FUJIFILM Wako Pure Chemical Corporation) (hereinafter, also referred to as "DMEM medium") to which penicillin-streptomycin (manufactured by Thermo Fisher Scientific, Inc.) and fetal bovine serum (manufactured by Sigma-Aldrich Co. LLC) had been added to reach concentrations of 100 Unit/mL, 100 µg/mL, and 10%, respectively, and seeded in a 12-well plate.
The 3T3-L1 cells were cultured under conditions of 5% CO2 and 37°C until the cells became confluent (a state in which cells are totally covering the surface of a culture vessel). Two days after becoming confluent, the medium was exchanged with a medium obtained by adding dexamethasone (manufactured by NACALAI TESQUE, INC.), 3-isobutyl-1-methylxanthine (manufactured by NACALAI TESQUE, INC.), and insulin (manufactured by NACALAI TESQUE, INC.) to DMEM medium to reach concentrations of 0.25 µM, 0.5 mM, and 10 µg/mL, respectively. Thereafter, the 3T3-L1 cells were cultured at 5% CO2 and 37°C for 2 days to induce the cells to differentiate into adipocytes.
After the induction of differentiation, medium exchange with a medium obtained by adding insulin to DMEM medium to reach a concentration of 5 µg/mL was performed every 2 or 3 days, and differentiation was maintained by culturing at 5% CO2 and 37°C for 12 days in total. Thereafter, a medium is prepared as a test medium by adding penicillin-streptomycin (manufactured by Thermo Fisher Scientific, Inc.) and fetal bovine serum (manufactured by Sigma-Aldrich Co. LLC) to DMEM medium free of phenol red (1.0 g/L glucose) (manufactured by NACALAI TESQUE, INC.) to reach concentrations of 100 Unit/mL, 100 µg/mL, and 10%, respectively, and components shown in Table 4 were added to the test medium to reach concentrations shown in Table 4. The medium for the 3T3-L1 cells after induction of differentiation was exchanged with a medium to which components of any of Comparative Examples 4, 5 or Examples 6 to 8 had been added, and the 3T3-L1 cells were cultured at 5% CO2 and 37°C for 2 days.
Ethyl caproate manufactured by Tokyo Chemical Industry Co., Ltd. was used for the ethyl caproate, ethanol manufactured by FUJIFILM Wako Pure Chemical Corporation was used for the ethanol, and noradrenaline manufactured by NACALAI TESQUE, INC. was used for the noradrenaline.
After culturing for 2 days, the culture supernatant was collected, and glycerol released into the culture supernatant was quantified with a Glycerol Assay kit (Cell-Based) (manufactured by Abcam). The ratio of the amount of glycerol in each medium to which the components of any of Comparative Example 5 and Examples 6 to 8 had been added relative to the amount of glycerol in the medium to which the component of Comparative Example 4 had been added (hereinafter, referred to as "control ratio") was determined to obtain the average ± standard error.
In the present test, statistical test was carried out by multiple comparison test with one-way analysis of variance (one-way ANOVA) followed by Dunnett's test. Significance levels of p < 0.05 were each determined to be a significant difference. These analyses were all performed with SPSS version 23 (manufactured by SPSS).

[1] = system: HEK293T cells without transfer of the TRPA1 gene; test: Test 5: TRPA1 activity test, reference in non-transformed cells; type: cell-based, human; settings: ethyl caproate 255 ppm test solution, 100 ppm in well
Procedure: In the present test, first, human embryonic HEK293T cells were first suspended in DMEM medium to which penicillin-streptomycin (manufactured by Thermo Fisher Scientific, Inc.) and fetal bovine serum (manufactured by Sigma-Aldrich Co. LLC) were added to reach concentrations of 100 Unit/mL, 100 µg/mL, and 10%, respectively, seeded in a 96-well plate at a volume of 100 µL/well, and cultured under conditions of 5% CO2 and 37°C until a cell density reached 70 to 90%.
(§1) Ethyl caproate was added to HEPES buffer (10 mM HEPES, 130 mM NaCl, 5 mM KCl, 10 mM glucose, 2 mM CaCl2·2H2O, 1.2 mM MgCl2·6H2O, pH = 7.40), and thus a test solution of Example 9 containing ethyl caproate in a concentration of 255 ppm was obtained. […] Measurement of fluorescence intensity for the cells with forced expression of TRPA1 was initiated, and, 20 seconds thereafter, 50-µL portions of each of the test solutions prepared were added to three wells. After the lapse of a predetermined period of time, the measurement of fluorescence intensity was completed, and ratios of fluorescence intensity at each time after addition of a test solution as the average of fluorescence intensity before addition of a test solution was assumed as 1 (hereinafter, also referred to as "RFU (relative fluorescence units)") were determined from measurements of fluorescence intensity. […]

TRPA1 = biological target: T1, TRPA1 (Homo sapiens, UniProt O75762); test: Test 5: TRPA1 activity test, calcium imaging in cells with forced expression of TRPA1; type: cell-based
T1 construct: expressed in transfected cells; host or cells: HEK293T cells, transient transfection with Lipofectamine 2000
T1 sequence (O75762 whole entry): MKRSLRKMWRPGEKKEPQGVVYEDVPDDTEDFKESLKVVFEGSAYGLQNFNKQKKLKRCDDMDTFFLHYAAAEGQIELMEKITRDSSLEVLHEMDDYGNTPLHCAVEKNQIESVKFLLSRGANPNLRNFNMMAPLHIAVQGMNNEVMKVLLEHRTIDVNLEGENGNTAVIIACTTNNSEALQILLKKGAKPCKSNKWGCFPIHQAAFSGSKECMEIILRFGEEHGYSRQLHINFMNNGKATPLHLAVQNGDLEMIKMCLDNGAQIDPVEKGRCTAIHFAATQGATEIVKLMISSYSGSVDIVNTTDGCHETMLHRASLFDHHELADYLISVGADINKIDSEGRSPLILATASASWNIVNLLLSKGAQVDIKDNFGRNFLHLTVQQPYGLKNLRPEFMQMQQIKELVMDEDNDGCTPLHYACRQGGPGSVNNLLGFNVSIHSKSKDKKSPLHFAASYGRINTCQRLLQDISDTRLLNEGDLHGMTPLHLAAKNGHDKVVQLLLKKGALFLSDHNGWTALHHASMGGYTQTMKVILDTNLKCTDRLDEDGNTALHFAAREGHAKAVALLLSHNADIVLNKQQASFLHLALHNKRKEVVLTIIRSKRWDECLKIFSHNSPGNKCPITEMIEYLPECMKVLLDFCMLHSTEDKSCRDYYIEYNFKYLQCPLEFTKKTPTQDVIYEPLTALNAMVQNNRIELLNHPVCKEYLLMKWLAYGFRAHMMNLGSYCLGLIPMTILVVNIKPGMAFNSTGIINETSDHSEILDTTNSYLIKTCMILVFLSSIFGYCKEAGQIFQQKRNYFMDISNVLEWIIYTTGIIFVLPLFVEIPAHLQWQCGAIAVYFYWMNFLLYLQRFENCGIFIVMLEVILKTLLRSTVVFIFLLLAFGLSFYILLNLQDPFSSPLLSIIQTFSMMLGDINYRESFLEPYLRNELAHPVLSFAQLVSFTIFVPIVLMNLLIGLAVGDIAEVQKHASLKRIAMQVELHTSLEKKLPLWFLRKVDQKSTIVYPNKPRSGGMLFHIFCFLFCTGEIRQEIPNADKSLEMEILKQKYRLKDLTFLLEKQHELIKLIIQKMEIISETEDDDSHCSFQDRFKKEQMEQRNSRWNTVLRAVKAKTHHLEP
Procedure: In the present test, the contribution of the lipid metabolism promoter of the present embodiment to TRPA1 activity was examined by checking the activation of the temperature-sensitive ion channel TRPA1 with a calcium imaging method. The specific testing method of the present test and the results of the test are shown in the following. […]
as §1, with “intensity. Further, change rates in RFU before and after addition of a test solution (hereinafter, also referred to as "ΔRFU") were determined at each time after addition of a test solution.” for “intensity.”

Row | Compound | control ratio: amount of glycerol relative to medium of Comparative Example 4, Average (3T3-L1 cells) | maximum value of ΔRFU after addition of test solution, Average [1] | cellular response after co-addition of the TRPA1 inhibitor HC03001 (TRPA1; cells with forced expression of TRPA1, Figure 11) | cellular response of cells with forced expression of TRPA1 (TRPA1; ethyl caproate 100 ppm in well, Figures 9 and 10) | amount of released glycerol, comparison with control (3T3-L1 cells)
1 | CCCCCC(=O)OCC [Example 6, Ethyl caproate] | 1.063 | – | – | – | –
2 | CCCCCC(=O)OCC [Example 9, Ethyl caproate] | – | 0.046 | disappeared | evoked cellular response | –
3 | CCCCCC(=O)OCC [Example 7, Ethyl caproate] | 1.089 | – | – | – | increasing tendency in the amount of released glycerol
4 | CCCCCC(=O)OCC [Example 8, Ethyl caproate] | 1.118 | – | – | – | significant increase in the amount of released glycerol
5 | NC[C@H](O)c1ccc(O)c(O)c1 [Comparative Example 5, Noradrenaline, reference compound] | 1.002 | – | – | – | almost no difference in the amount of released glycerol
